Type in all cases: in vivo
The subject of one assay is Puccinia coronata. As to the kind of experiment: Controlling effect on Puccinia coronata by foliage application (pot experiment). The following applies: foliage spray on oat (cv. PC-38) seedlings, infected area after 1 day moist chamber and 8 days greenhouse at 20° C. The procedure:
The following Test Examples illustrate the effects of the fungicide of the present invention. (I. Controlling effects on various plant diseases by foliage application (pot experiment)) A test compound was dissolved in a small amount of N,N-dimethylformamide, and the solution was diluted to a given concentration with distilled water containing a spreader. Thus, a liquid sample to be tested was prepared. The liquid sample was sprayed to test plants, and 24 hours thereafter, pathogens were inoculated by the method described below. […] The seeds of oat (cv.: PC-38) were sown in plastic cups (each 9 cm in diameter), followed by cultivation for 2 to 3 weeks. The test compound in the form of a solution or suspension was sprayed to the seedlings. Spores of Puccinia coronata cultured on oat leaves were collected, diluted about 10-fold with talc, and sprayed to the test plants to inoculate the plants with the pathogen. After the inoculation, the plants were kept in a moist chamber at 20° C. for 1 day and then in a greenhouse at 20° C. for 8 days. The infected area on the leaf was observed, and the percent control was calculated.

In a further assay the test system is Pyricularia oryzae. To be noted: foliage spray on rice seedlings (cv. […]), number of lesions six days after the inoculation.
For the next assay, the system named is Botrytis cinerea. As to the kind of experiment: Controlling effect on Botrytis cinerea by foliage application (pot experiment). To be noted: foliage spray on cucumber (cv. TSUKUBASHIROIBO) first leaves, mycelial disks, lesion diameter after 3 days in moist chamber at 20° C. The procedure:
The following Test Examples illustrate the effects of the fungicide of the present invention. (I. Controlling effects on various plant diseases by foliage application (pot experiment)) A test compound was dissolved in a small amount of N,N-dimethylformamide, and the solution was diluted to a given concentration with distilled water containing a spreader. Thus, a liquid sample to be tested was prepared. The liquid sample was sprayed to test plants, and 24 hours thereafter, pathogens were inoculated by the method described below. […] The seeds of cucumber ([…]) were sown in plastic cups (each 9 cm in diameter), followed by cultivation for 2 to 3 weeks. The test compound in the form of a solution or suspension was sprayed to the surface of their first leaves, and mycelial disks (4 mm φ) of Botrytis cinerea cultured on the potato sucrose agar medium were put on the leaf surfaces to inoculate. the cucumber seedlings with the pathogen. The plants were kept in a moist chamber at 20° C. for 3 days. The diameter of the lesions on the leaves was measured and the percent control was calculated.

In assay [1] the test system is Erysiphe graminis f. sp. tritici. The experiment in a line: Controlling effect on Erysiphe graminis f. sp. tritici by foliage application (pot experiment). To be noted: foliage spray on wheat (cv. NORIN No. 61) seedlings, infected area after 10 days in greenhouse at 20° C. An outline of the steps: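 Wheat seedlings (cv. NORIN No. 61, 2-3 weeks old) sprayed with compound in DMF diluted in water with spreader, then inoculated with conidia 24 hours later. Kept in greenhouse at 20 °C for 10 days; percent control calculated from infected leaf area.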

Another assay concerns Sphaerotheca fuliginea. The experiment in a line: Controlling effect on Sphaerotheca fuliginea by foliage application (pot experiment). To be noted: foliage spray on cucumber (cv. TSUKUBASHIROIBO) first leaves, infected area after 10 days in greenhouse at 20° C. An outline of the steps: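 First leaves of cucumber seedlings, 2-3 weeks old, were sprayed with compound (DMF solution diluted in water with spreader). They were inoculated 24 h later with a Sphaerotheca fuliginea conidia spray and kept 10 days at 20° C in a greenhouse. Percent control was calculated from infected leaf area.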

For assay [2], the system named is Pseudoperonospora cubensis. As to the kind of experiment: Controlling effect on Pseudoperonospora cubensis by foliage application (pot experiment). The following applies: foliage spray on cucumber (var. TSUKUBASHIROIBO) first leaves, lesion area after 10 days in moist chamber at 20° C. In short, it runs like this: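 Cucumber plants grown 2–3 weeks were sprayed on first leaves with compound (DMF solution diluted in water with spreader); 24 h later, Pseudoperonospora cubensis zoosporangia suspension dropped on leaves. Plants held in moist chamber at 20° C for 10 days; lesion area observed and percent control calculated.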

For `CON=C(c1ccccc1COc1ccccc1)n1cncc1C` [compound 201], the “Controllng effect on Puccinia coronata by foliage application at 500 ppm (percent control)” value (“Controllng effect … (percent control)” below) in the assay on Puccinia coronata worked out at 90 percent control. Besides, the “Controlling effect on PYricularia orYzae by foliage application at 500 ppm (percent control)” value in the assay with Pyricularia oryzae is 90 percent control. In addition, the “Controlling effect on Botrytis cinerea by foliage application at 500 ppm (percent control)” value in the assay on Botrytis cinerea came out at 70 percent control. The “Controlling effect on ErYsiphe graminis f. sp. tritici by foliage application at 500 ppm (percent control)” value in assay [1] worked out at 90 percent control. For the same compound, the “Controlling effect on Sphaerotheca fuliginea by foliage application at 500 ppm (percent control)” value with Sphaerotheca fuliginea came out at 100 percent control.
Consider `OC(c1ccc(Cl)cc1)(c1cncnc1)c1ccccc1Cl` (stereo not drawn) [Fenarimol, reference compound], for which the “Controllng effect … (percent control)” value in the assay with Puccinia coronata is listed as 97 percent control. In addition, in the assay with Botrytis cinerea, the “Controlling effect on Botrytis cinerea by foliage application at 500 ppm (percent control)” value is given as 97 percent control. Further, the pest or weed control at 500 ppm was 97% in assay [1] (Blumeria graminis, foliar, 240 h, read-out: Controlling effect on ErYsiphe graminis f. sp. tritici by foliage application at 500 ppm (percent control)) and 97% in the assay with Sphaerotheca fuliginea (Podosphaera fuliginea, in Cucumis sativus, foliar, 240 h, read-out: Controlling effect on Sphaerotheca fuliginea by foliage application at 500 ppm (percent control)).
Regarding `CON=C(c1ccccc1COc1c(C)cccc1C)n1ccnc1` [compound 40], the “Controllng effect … (percent control)” value in the assay with Puccinia coronata was determined as 70 percent control. Moreover, in the assay with Pyricularia oryzae, the “Controlling effect on PYricularia orYzae by foliage application at 500 ppm (percent control)” value is 90 percent control. Moreover, the “Controlling effect on Botrytis cinerea by foliage application at 500 ppm (percent control)” value with Botrytis cinerea stood at 70 percent control. In addition, the “Controlling effect on ErYsiphe graminis f. sp. tritici by foliage application at 500 ppm (percent control)” value in assay [1] was determined as 97 percent control. Moreover, in the assay on Sphaerotheca fuliginea, the “Controlling effect on Sphaerotheca fuliginea by foliage application at 500 ppm (percent control)” value amounted to 100 percent control.
On to `CON=C(c1ccccc1COc1ccccc1Cl)n1cncc1C` [compound 205], for which, in the assay on Puccinia coronata, the “Controllng effect … (percent control)” value came out at 70 percent control. Further, the “Controlling effect on PYricularia orYzae by foliage application at 500 ppm (percent control)” value with Pyricularia oryzae stood at 90 percent control. Besides, the “Controlling effect on Botrytis cinerea by foliage application at 500 ppm (percent control)” value in the assay on Botrytis cinerea came out at 70 percent control. Besides, the “Controlling effect on Sphaerotheca fuliginea by foliage application at 500 ppm (percent control)” value in the assay on Sphaerotheca fuliginea was determined as 100 percent control.
Turning to `CCON=C(c1ccccc1COc1ccccc1)n1ccnc1` [Compound No. 61], the “Controllng effect … (percent control)” value in the assay on Puccinia coronata came to 97 percent control. In the assay on Pyricularia oryzae, the “Controlling effect on PYricularia orYzae by foliage application at 500 ppm (percent control)” value is recorded as 97 percent control. Also, the “Controlling effect on Botrytis cinerea by foliage application at 500 ppm (percent control)” value with Botrytis cinerea was found to be 100 percent control. Also, in assay [1], the “Controlling effect on ErYsiphe graminis f. sp. tritici by foliage application at 500 ppm (percent control)” value turned out to be 97 percent control.
Turning to `C=CCON=C(c1ccccc1COc1ccccc1)n1ccnc1` [Compound No. 81], in the assay on Puccinia coronata, the “Controllng effect … (percent control)” value amounted to 97 percent control. The “Controlling effect on PYricularia orYzae by foliage application at 500 ppm (percent control)” value in the assay with Pyricularia oryzae is reported as 97 percent control. For the same compound, the “Controlling effect on Botrytis cinerea by foliage application at 500 ppm (percent control)” value with Botrytis cinerea turned out to be 90 percent control. Besides, the “Controlling effect on ErYsiphe graminis f. sp. tritici by foliage application at 500 ppm (percent control)” value in assay [1] is listed as 97 percent control.
As for `CON=C(c1cc(C)no1)c1ccccc1COc1ccc(Cl)cc1` (single isomer, unassigned) [607A], the “Controlling effect on PYricularia orYzae by foliage application at 500 ppm (percent control)” value with Pyricularia oryzae was 90 percent control. In addition, in the assay with Botrytis cinerea, the “Controlling effect on Botrytis cinerea by foliage application at 500 ppm (percent control)” value worked out at 70 percent control. Moreover, the “Controlling effect on Pseudoperonospora cubensis by foliage application at 500 ppm (percent control)” value in assay [2] amounted to 97 percent control. Also, the “Controlling effect on ErYsiphe graminis f. sp. tritici by foliage application at 500 ppm (percent control)” value in assay [1] is reported as 90 percent control. Besides, in the assay on Sphaerotheca fuliginea, the “Controlling effect on Sphaerotheca fuliginea by foliage application at 500 ppm (percent control)” value is listed as 90 percent control.
With `CON=C(c1ccccc1COc1cccc(C(F)(F)F)c1)c1nccn1C` (single isomer, unassigned) [122A], the “Controlling effect on PYricularia orYzae by foliage application at 500 ppm (percent control)” value in the assay with Pyricularia oryzae is 97 percent control. The “Controlling effect on Botrytis cinerea by foliage application at 500 ppm (percent control)” value in the assay with Botrytis cinerea came out at 70 percent control. In addition, the “Controlling effect on Pseudoperonospora cubensis by foliage application at 500 ppm (percent control)” value in assay [2] came to 100 percent control. Besides, in assay [1], the “Controlling effect on ErYsiphe graminis f. sp. tritici by foliage application at 500 ppm (percent control)” value is on record as 97 percent control. Also, in the assay on Sphaerotheca fuliginea, the “Controlling effect on Sphaerotheca fuliginea by foliage application at 500 ppm (percent control)” value turned out to be 100 percent control.

Source of the values: US6362212B1, “Oxime derivative and bactericide containing the same as active ingredient” (Shionogi & Company, Ltd., priority 1994, dated 2002).
